Assay results as given in patent US6387912B1, “Utilization of pyrimidine derivatives for preventing and treating cerebral ischaemia” (BASF Aktiengesellschaft, priority 1999, dated 2002).
Counter-ions that a name gives are not always drawn.

Row | SMILES | melting point
1 | CCN1CCc2sc3ncn(CCN4CCCN(c5cccc6ccccc56)CC4)c(=O)c3c2C1 (as salt: hydrochloride) [Example 17, 3,4,5,6,7,8-Hexahydro-6-ethyl-3-[2-(4-naphth-1-ylhexahydro-1,4-diazepin-1-yl)ethyl]pyrido[3′,4′:4,5]thieno[2,3-d]-pyrimidin-4-one] | 276 to 280 °C
2 | CCN1CCc2sc3ncn(CCN4CCN(c5cccc6c5CCCC6)CC4)c(=O)c3c2C1 (as salt: hydrochloride) [Example 12, 3,4,5,6,7,8-Hexahydro-6-ethyl-3-[2-(4-tetralin-5-yl-piperazin-1-yl)ethyl]pyrido[3′,4′:4,5]thieno[2,3-d]pyrimidin-4-one] | 287 °C
3 | CCN1CCc2sc3ncn(CCN4CCN(c5ccccc5Cl)CC4)c(=O)c3c2C1 [Example 5, 3,4,5,6,7,8-Hexahydro-6-ethyl-3-[2-(4-(2-chlorophenyl)-piperazin-1-yl)ethyl]pyrido[3′,4′:4,5]thieno[2,3-d]-pyrimidin-4-one] | 148 to 150 °C
4 | Cc1c(C(=O)N(C)C)sc2ncn(CCN3CCN(c4ccccc4C#N)CC3)c(=O)c12 (as salt: hydrochloride) [Example 15, 3,4-Dihydro-5-methyl-6-dimethylcarbamoyl-3-[2-(4-(2-cyanophenyl)piperazin-1-yl)ethyl]thieno[2,3-d]pyrimidin-4-one] | 210 °C
5 | Cc1ccc(C)c(N2CCN(CCn3cnc4sc(C(=O)N(C)C)c(C)c4c3=O)CC2)c1 [Example 31, 3,4-Dihydro-5-methyl-6-dimethylcarbamoyl-3-[2-(4-(2,5-dimethylphenyl)piperazin-1-yl)ethyl]thieno-[2,3-d]pyrimidin-4-one] | 90 to 91 °C
6 | Cc1ccnc(N2CCN(CCn3cnc4sc5c(c4c3=O)CCN(C)C5)CC2)n1 [Example 153, 3,4,5,6,7,8-Hexahydro-7-methyl-3-[2-(4-(4-methylpyrimidin-2-yl)piperazin-1-yl)ethyl]pyrido[4′,3′:4,5]thieno[2,3-d]-pyrimidin-4-one] | 136 to 138 °C
7 | O=c1c2c3c(sc2ncn1CCN1CCN(c2ccccc2)CC1)CN(Cc1ccccc1)CC3 [Example 19, 3,4,5,6,7,8-Hexahydro-7-benzyl-3-[2-(4-phenylpiperazin-1-yl)-ethyl]pyrido[4′,3′:4,5]thieno[2,3-d]pyrimidin-4-one] | 70 to 71 °C
8 | CCOC(=O)N1Cc2sc3ncn(CCN4CCN(c5ncccn5)CC4)c(=O)c3c2C1 [Example 11, 3,4,5,7-Tetrahydro-6-carboethoxy-3-[2-(4-pyrimidin-2-yl-piperazin-1-yl)ethyl]pyrrolo[3′,4′:4,5]thieno[2,3-d]-pyrimidin-4-one] | 166 °C
9 | COc1ccccc1N1CCN(CCCn2cnc3sc4c(c3c2=N)CCN(C)C4)CC1 [Example 15, 3,4,5,6,7,8-Hexahydro-7-methyl-3-[3-(4-(2-methoxyphenyl)-piperazin-1-yl)propyl]pyrido[4′,3′:4,5]thieno[2,3-d]pyrimidin-4-imine] | 112 to 114 °C
10 | CN1CCc2c(sc3ncn(CCN4CCN(c5ccc(F)c6ccccc56)CC4)c(=O)c23)C1 [Example 140, 3,4,5,6,7,8-Hexahydro-7-methyl-3-[2-(4-(4-fluoronaphth-1-yl)-piperazin-1-yl)ethyl]pyrido[4′,3′:4,5]thieno[2,3-d]-pyrimidin-4-one] | 157 to 158 °C
11 | CCOC(=O)N1Cc2sc3ncn(CCN4CCN(c5cccc6ccccc56)CC4)c(=O)c3c2C1 [Example 8, 3,4,5,7-Tetrahydro-6-carboethoxy-3-[2-(4-(1-naphthyl)-piperazin-1-yl)ethyl]pyrrolo[3′,4′:4,5]thieno[2,3-d]-pyrimidin-4-one] | 190 to 192 °C
12 | N=c1c2c3c(sc2ncn1CCN1CCN(c2ccccc2)CC1)CN(Cc1ccccc1)CC3 [Example 17, 3,4,5,6,7,8-Hexahydro-7-benzyl-3-[2-(4-phenylpiperazin-1-yl)-ethyl]pyrido[4′,3′:4,5]thieno[2,3-d]pyrimidin-4-imine] | 168 to 170 °C
13 | Cc1c(C(=O)N(C)C)sc2ncn(CCN3CCN(c4cccc5c4CCC5)CC3)c(=O)c12 [Example 14, 3,4-Dihydro-5-methyl-6-dimethylcarbamoyl-3-[2-(4-indan-4-ylpiperazin-1-yl)ethyl]thieno[2,3-d]pyrimidin-4-one] | 153 °C
14 | CN1CCc2c(sc3ncn(CCCN4CCN(c5ncccn5)CC4)c(=O)c23)C1 [Example 64, 3,4,5,6,7,8-Hexahydro-7-methyl-3-[3-(4-pyrimidin-2-yl-piperazin-1-yl)propyl]pyrido[4′,3′:4,5]thieno[2,3-d]-pyrimidin-4-one] | 161 to 163 °C
15 | CCOC(=O)N1Cc2sc3ncn(CCCN4CCN(c5ccccc5C#N)CC4)c(=O)c3c2C1 [Example 43, 3,4,5,7-Tetrahydro-6-carboethoxy-3-[3-(4-(2-cyanophenyl)-piperazin-1-yl)propyl]pyrrolo[3′,4′:4,5]thieno[2,3-d]-pyrimidin-4-one] | 190 °C
16 | CCOC(=O)N1Cc2sc3ncn(CCN4CCN(c5ccccc5C)CC4)c(=O)c3c2C1 [Example 38, 3,4,5,7-Tetrahydro-6-carboethoxy-3-[2-(4-(2-methylphenyl)-piperazin-1-yl)ethyl]pyrrolo[3′,4′:4,5]thieno-[2,3-d]pyrimidin-4-one] | 152 °C

Row | SMILES | melting point
17 | Cc1c(C(=O)N(C)C)sc2ncn(CCN3CCN(c4cccc5c4CCCC5)CC3)c(=O)c12 [Example 13, 3,4-Dihydro-5-methyl-6-dimethylcarbamoyl-3-[2-(4-tetralin-5-ylpiperazin-1-yl)ethyl]thieno[2,3-d]pyrimidin-4-one] | 174 °C
18 | CN1CCc2c(sc3ncn(CCN4CCN(c5cc(C(F)(F)F)ccn5)CC4)c(=O)c23)C1 [Example 141, 3,4,5,6,7,8-Hexahydro-7-methyl-3-[2-(4-(4-trifluoromethylpyridin-2-yl)piperazin-1-yl)ethyl]pyrido[4′,3′:4,5]thieno-[2,3-d]pyrimidin-4-one] | 101 to 102 °C
19 | CN1CCc2c(sc3ncn(CCCN4CCN(c5ncccn5)CC4)c(=N)c23)C1 [Example 36, 3,4,5,6,7,8-Hexahydro-7-methyl-3-[3-(4-pyrimidin-2-yl-piperazin-1-yl)propyl]pyrido[4′,3′:4,5]thieno[2,3-d]-pyrimidin-4-imine] | 161 to 163 °C
20 | CN1CCc2c(sc3ncn(CCN4CCN(c5ccccc5)CC4)c(=O)c23)C1 [Example 145, 3,4,5,6,7,8-Hexahydro-7-methyl-3-[2-(4-phenylpiperazin-1-yl)ethyl]pyrido[4′,3′:4,5]thieno[2,3-d]pyrimidin-4-one] | 121 to 123 °C
21 | CN1CCc2c(sc3ncn(CCCN4CCN(c5ccccc5O)CC4)c(=N)c23)C1 [Example 29, 3,4,5,6,7,8-Hexahydro-7-methyl-3-[3-(4-(2-hydroxyphenyl)-piperazin-1-yl)propyl]pyrido[4′,3′:4,5]thieno[2,3-d]-pyrimidin-4-imine] | 164 to 166 °C
22 | CN1CCc2c(sc3ncn(CCCN4CCN(c5ccccc5C#N)CC4)c(=N)c23)C1 [Example 37, 3,4,5,6,7,8-Hexahydro-7-methyl-3-[3-(4-(2-cyanophenyl)-piperazin-1-yl)propyl]pyrido[4′,3′:4,5]thieno[2,3-d]-pyrimidin-4-imine] | 148 to 150 °C
23 | CN1CCc2c(sc3ncn(CCN4CCN(c5ncccn5)CC4)c(=O)c23)C1 [Example 27, 3,4,5,6,7,8-Hexahydro-7-methyl-3-[2-(4-pyrimidin-2-ylpiperazin-1-yl)ethyl]pyrido[4′,3′:4,5]thieno[2,3-d]-pyrimidin-4-one] | 146 to 148 °C
24 | CCOC(=O)N1Cc2sc3ncn(CCN4CCN(c5cccc6c5CCC6)CC4)c(=O)c3c2C1 [Example 44, 3,4,5,7-Tetrahydro-6-carboethoxy-3-[2-(4-indan-4-ylpiperazin-1-yl)ethyl]pyrrolo[3′,4′:4,5]thieno[2,3-d]pyrimidin-4-one] | 149 °C
25 | Cc1cccc(N2CCN(CCn3cnc4sc5c(c4c3=O)CCN(C)C5)CC2)c1C [Example 44, 3,4,5,6,7,8-Hexahydro-7-methyl-3-[2-(4-(2,3-dimethylphenyl)-piperazin-1-yl)ethyl]pyrido[4′,3′:4,5]thieno[2,3-d]pyrimidin-4-one] | 163 to 167 °C
26 | COc1ccccc1N1CCN(CCn2cnc3sc4c(c3c2=O)CCN(C(C)=O)C4)CC1 [Example 116, 3,4,5,6,7,8-Hexahydro-7-acetyl-3-[2-(4-(2-methoxyphenyl)-piperazin-1-yl)ethyl]pyrido[4′,3′:4,5]thieno[2,3-d]-pyrimidin-4-one] | 170 to 172 °C
27 | CN1CCc2c(sc3ncn(CCN4CCN(c5cc(Cl)cc(Cl)c5)CC4)c(=O)c23)C1 [Example 46, 3,4,5,6,7,8-Hexahydro-7-methyl-3-[2-(4-(3,5-dichlorophenyl)-piperazin-1-yl)ethyl]pyrido[4′,3′:4,5]thieno[2,3-d]pyrimidin-4-one] | 97 to 100 °C
28 | Cc1c(C(=O)N(C)C)sc2ncn(CCN3CCN(c4cccc5ccccc45)CC3)c(=O)c12 [Example 3, 3,4-Dihydro-5-methyl-6-dimethylcarbamoyl-3-[2-(4-(1-naphthyl)piperazin-1-yl)ethyl]thieno[2,3-d]pyrimidin-4-one] | 190 to 191 °C
29 | COc1ccccc1N1CCN(CCn2c(O)nc3sc4c(c3c2=O)CCN(C(C)=O)C4)CC1 [Example 121, 3,4,5,6,7,8-Hexahydro-7-acetyl-2-hydroxy-3-[2-(4-(2-methoxyphenyl)piperazin-1-yl)ethyl]pyrido[4′,3′:4,5]thieno-[2,3-d]pyrimidin-4-one] | 135 to 137 °C
30 | COc1ccccc1N1CCN(CCn2c(C)nc3sc4c(c3c2=O)CCN(C)C4)CC1 [Example 120, 3,4,5,6,7,8-Hexahydro-2,7-dimethyl-3-[2-(4-(2-methoxyphenyl)-piperazin-1-yl)ethyl]pyrido[4′,3′:4,5]thieno-[2,3-d]pyrimidin-4-one] | 176 to 178 °C
31 | CN1CCc2c(sc3ncn(CCN4CCN(c5ncccn5)CC4)c(=N)c23)C1 (as salt: tartrate) [Example 20, 3,4,5,6,7,8-Hexahydro-7-methyl-3-[2-(4-pyrimidin-2-yl-piperazin-1-yl)ethyl]pyrido[4′,3′:4,5]thieno[2,3-d]-pyrimidin-4-imine] | 112 to 114 °C (dec.)
